Reference: patent publication US11401286B2 (Tetra Discovery Partners, LLC, priority 2012, dated 2022)
Structures can show the parent of a compound that is named as a salt.

Each compound was assayed against PDE4D7 (Homo sapiens (Human), UniProt Q08499). Details: not given.
Sequence of PDE4D7 (Q08499 other isoform, or with tags, fused parts or gaps): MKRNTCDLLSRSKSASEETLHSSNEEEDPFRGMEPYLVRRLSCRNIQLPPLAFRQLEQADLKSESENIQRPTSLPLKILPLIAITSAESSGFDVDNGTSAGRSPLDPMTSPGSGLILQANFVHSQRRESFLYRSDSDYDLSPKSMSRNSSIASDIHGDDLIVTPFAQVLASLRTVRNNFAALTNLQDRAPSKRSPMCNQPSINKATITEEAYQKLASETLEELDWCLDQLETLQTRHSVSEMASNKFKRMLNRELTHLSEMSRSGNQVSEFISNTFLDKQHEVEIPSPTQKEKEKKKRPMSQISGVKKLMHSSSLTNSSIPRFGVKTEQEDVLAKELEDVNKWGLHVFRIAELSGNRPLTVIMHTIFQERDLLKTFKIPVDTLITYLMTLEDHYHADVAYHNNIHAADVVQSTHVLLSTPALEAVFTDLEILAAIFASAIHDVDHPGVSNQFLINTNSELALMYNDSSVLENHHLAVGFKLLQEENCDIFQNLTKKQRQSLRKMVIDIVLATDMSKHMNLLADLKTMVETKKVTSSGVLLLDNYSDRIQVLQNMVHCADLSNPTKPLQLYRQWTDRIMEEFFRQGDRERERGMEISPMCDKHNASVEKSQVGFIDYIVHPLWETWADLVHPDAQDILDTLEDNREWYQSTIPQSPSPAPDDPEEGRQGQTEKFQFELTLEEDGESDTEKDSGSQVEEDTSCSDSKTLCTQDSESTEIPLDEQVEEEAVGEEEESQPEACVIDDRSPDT

`COC(=O)Cc1ccc(Cc2cc(C3CC3)nc(-c3cccc(Cl)c3)n2)cc1` [Example 208, Methyl 2-(4-((2-(3-chlorophenyl)-6-cyclopropylpyrimidin-4-yl)methyl)phenyl)acetate] was tested, and the IC50 was over 1000 nM.

Same assay, conditions: read-out: PDE4D7 IC50; PDE4D7 without asterisk

Going from `CCc1cc(Nc2ccc(CCO)cc2)nc(C2CCCC2)n1` [Example 222, 2-(4-((2-Cyclopentyl-6-ethylpyrimidin-4-yl)amino)phenyl)ethanol] to `CCc1cc(Cc2ccc(CC(=O)OC)cc2)nc(C2CCCC2)n1` [Example 223, Methyl 2-(4-((2-cyclopentyl-6-ethylpyrimidin-4-yl)methyl)phenyl)acetate], the IC50 rises from under 1000 nM to over 1000 nM.

`NC(=O)Cc1ccc(Nc2cc(C(F)(F)F)nc(-c3cccc(Cl)c3)n2)cc1` [Example 220, 2-(4-((2-(3-Chlorophenyl)-6-(trifluoromethyl)pyrimidin-4-yl)amino)phenyl)acetamide] and `OCCCc1ccc(Nc2cc(-c3cccc(Cl)c3)nc(C(F)(F)F)c2)cc1` [Example 147, 3-(4-((2-(3-Chlorophenyl)-6-(trifluoromethyl)pyridin-4-yl)amino)phenyl)propan-1-ol] cannot be ordered by IC50: under 1000 nM for the first, under 1000 nM for the second.

`OCCc1ccc(Nc2nc(-c3cccc(Cl)c3)nc3c2SCC3)cc1` [Example 279, 2-(4-((2-(3-Chlorophenyl)-6,7-dihydrothieno[3,2-d]pyrimidin-4-yl)amino)phenyl)ethanol] and `OCCc1ccc(Nc2nc(-c3cccc(Cl)c3)nc3c2CCC3)cc1` [Example 162, 2-(4-((2-(3-Chlorophenyl)-6,7-dihydro-5H-cyclopenta[d]pyrimidin-4-yl)amino)phenyl)ethanol] cannot be ordered by IC50: under 1000 nM for the first, under 1000 nM for the second.

First: CCc1nc(Nc2ccc(CCOC)cc2)nc(-c2cccc(Cl)c2)n1 [Example 82, 4-(3-Chlorophenyl)-6-ethyl-N-(4-(2-methoxyethyl)phenyl)-1,3,5-triazin-2-amine]
Second: CN(C)CCc1ccc(Nc2nc(-c3cccc(Cl)c3)nc3c2CCC3)cc1 [Example 169, 2-(3-Chlorophenyl)-N-(4-(2-(dimethylamino)ethyl)phenyl)-6,7-dihydro-5H-cyclopenta[d]pyrimidin-4-amine hydrochloride]
The IC50 of the first is lower: under 1000 nM for the first, over 1000 nM for the second. The first is the more potent here.

`OCCc1ccc(C(O)c2cc(-c3cccc(Cl)c3)nc3c2CCC3)cc1` (stereo not drawn) [Example 263, 2-(4-((2-(3-Chlorophenyl)-6,7-dihydro-5H-cyclopenta[b]pyridin-4-yl)(hydroxy)methyl)phenyl)ethanol] and `C[C@@H](O)Cc1ccc(Nc2cc(-c3cccc(Cl)c3)nc3c2CCC3)cc1` [Example 106, (R)-1-(4-((2-(3-Chlorophenyl)-6,7-dihydro-5H-cyclopenta[b]pyridin-4-yl)amino)phenyl)propan-2-ol] cannot be ordered by IC50: over 1000 nM for the first, over 1000 nM for the second.

Compared with `CCc1cc(Oc2ccc(CC(N)=O)cn2)nc(-c2cccc(Cl)c2)n1` [Example 183, 2-(6-((2-(3-Chlorophenyl)-6-ethylpyrimidin-4-yl)oxy)pyridin-3-yl)acetamide], `O=C(Cc1ccc(Nc2cc(C3CC3)nc(-c3cccc(Cl)c3)n2)nc1)NCCO` [Example 215, 2-(6-((2-(3-Chlorophenyl)-6-cyclopropylpyrimidin-4-yl)amino)pyridin-3-yl)-N-(2-hydroxyethyl)acetamide] is lower in IC50: over 1000 nM for the first, under 1000 nM for the second.

`OCC(O)c1ccc(Nc2nc(-c3cccc(Cl)c3)nc3c2CCC3)cc1` (stereo not drawn) [Example 175, 1-(4-((2-(3-Chlorophenyl)-6,7-dihydro-5H-cyclopenta[d]pyrimidin-4-yl)amino)phenyl)ethane-1,2-diol] and `C[C@H](O)Cc1ccc(Nc2nc(-c3cccc(Cl)c3)nc3c2CCC3)cc1` [Example 173, (S)-1-(4-((2-(3-Chlorophenyl)-6,7-dihydro-5H-cyclopenta[d]pyrimidin-4-yl)amino)phenyl)propan-2-ol] cannot be ordered by IC50: over 1000 nM for the first, over 1000 nM for the second.

Compared with `OCCc1ccc(Nc2nc(OC3CCCC3)nc3c2CCC3)cc1` [Example 233, 2 2-(4-((2-(Cyclopentyloxy)-6,7-dihydro-5H-cyclopenta[d]pyrimidin-4-yl)amino)phenyl)ethanol], `OCCc1ccc(Nc2nc(-c3cccc(Cl)c3)nc3c2CCCC3)cc1` [Example 235, 2-(4-((2-(3-Chlorophenyl)-5,6,7,8-tetrahydroquinazolin-4-yl)amino)phenyl)ethanol] is lower in IC50: over 1000 nM for the first, under 1000 nM for the second. The second is the more potent here.

`Cc1nc(Nc2ccc(C(=O)O)cc2)nc(-c2ccc(Cl)s2)n1` [Example 31, 4-(4-(5-chlorothiophen-2-yl)-6-methyl-1,3,5-triazin-2-ylamino)benzoic acid] and `O=C(O)Cc1ccc(Nc2cc(C3CC3)nc(-c3ccc(Cl)s3)n2)cc1` [Example 297, 2-[4-[[2-(5-Chloro-2-thienyl)-6-cyclopropyl-pyrimidin-4-yl]amino]phenyl]acetic acid] cannot be ordered by IC50: over 1000 nM for the first, over 1000 nM for the second.

`O=S1(=O)CCCc2nc(-c3cccc(Cl)c3)nc(Nc3ccc(CCO)cc3)c21` [Example 273, 2-(3-Chlorophenyl)-4-((4-(2-hydroxyethyl)phenyl)amino)-7,8-dihydro-6H-thiopyrano[3,2-d]pyrimidine 5,5-dioxide] and `N#CNC(=O)Cc1ccc(Nc2nc(-c3cccc(Cl)c3)nc3c2S(=O)(=O)CCC3)cc1` [Example 315, 2-[4-[[2-(3-Chlorophenyl)-5,5-dioxo-7,8-dihydro-6H-thiopyrano[3,2-d]pyrimidin-4-yl]amino]phenyl]-N-cyano-acetamide] cannot be ordered by IC50: under 1000 nM for the first, under 1000 nM for the second.

`COC(=O)c1ccc(Nc2cc(-c3cccc(Cl)c3)nc3c2CCC3)cc1` [Example 87, Methyl 4-((2-(3-chlorophenyl)-6,7-dihydro-5H-cyclopenta[b]pyridin-4-yl)amino)benzoatehydrochloride] and `CN(C(N)=O)c1ccc(Nc2cc(-c3cccc(Cl)c3)nc3c2CCC3)cc1` [Example 129, 1-(4-((2-(3-Chlorophenyl)-6,7-dihydro-5H-cyclopenta[b]pyridin-4-yl)amino)phenyl)-1-methylurea hydrochloride] cannot be ordered by IC50: over 1000 nM for the first, over 1000 nM for the second.

`NC(=O)Cc1ccc(Nc2cc(-c3cncc(Cl)c3)nc3c2CCC3)cc1` [Example 134, 2-(4-((2-(5-Chloropyridin-3-yl)-6,7-dihydro-5H-cyclopenta[b]pyridin-4-yl)amino)phenyl)acetamide hydrochloride] and `NC(=O)Cc1ccc(Nc2cc(-c3ccc[nH]3)nc3c2CCC3)cc1` [Example 133, 2-(4-((2-(1H-Pyrrol-2-yl)-6,7-dihydro-5H-cyclopenta[b]pyridin-4-yl)amino)phenyl)acetamide hydrochloride] cannot be ordered by IC50: over 1000 nM for the first, over 1000 nM for the second.

`COC(=O)Cc1cccc(Nc2cc(-c3cccc(Cl)c3)nc3c2CCC3)c1` [Example 100, Methyl 2-(3-((2-(3-chlorophenyl)-6,7-dihydro-5H-cyclopenta[b]pyridin-4-yl)amino)phenyl)acetate hydrochloride] and `OCCc1ccc(Nc2cc(-c3cccc(Cl)c3)nc3c2CCC3)cc1F` [Example 113, 2-(4-((2-(3-Chlorophenyl)-6,7-dihydro-5H-cyclopenta[b]pyridin-4-yl)amino)-2-fluorophenyl)ethanol hydrochloride] cannot be ordered by IC50: over 1000 nM for the first, over 1000 nM for the second.

Compared with `NC(=O)Cc1ccc(Nc2cc(C3CCCCC3)nc3c2CCC3)cc1` [Example 250, 2-(4-((2-Cyclohexyl-6,7-dihydro-5H-cyclopenta[b]pyridin-4-yl)amino)phenyl)acetamide hydrochloride], `NC(=O)Cc1ccc(Nc2nc(C3CCCC3)nc3c2SCCC3)cc1` [Example 284, 2-(4-((2-cyclopentyl-7,8-dihydro-6H-thiopyrano[3,2-d]pyrimidin-4-yl)amino)phenyl)acetamide] is lower in IC50: over 1000 nM for the first, under 1000 nM for the second.

First: OCCCc1ccc(Nc2nc(-c3cccc(Cl)c3)nc3c2CCC3)cc1 [Example 163, 3-(4-((2-(3-Chlorophenyl)-6,7-dihydro-5H-cyclopenta[d]pyrimidin-4-yl)amino)phenyl)propan-1-ol]
Second: O=C(O)Cc1ccc(Nc2nc(-c3cccc(Cl)c3)nc3c2CCC3)cc1 [Example 10, 2-[4-[[2-(3-Chlorophenyl)-6,7-dihydro-5H-cyclopenta[d]pyrimidin-4-yl]amino]phenyl]acetic acid]
The IC50 of the first is lower: under 1000 nM for the first, over 1000 nM for the second. The first is the more potent here.

Going from `NC(=O)C(CO)Cc1ccc(Nc2nc(-c3cccc(Cl)c3)nc3c2CCC3)cc1` (stereo not drawn) [Example 168, 2-(4-((2-(3-Chlorophenyl)-6,7-dihydro-5H-cyclopenta[d]pyrimidin-4-yl)amino)benzyl)-3-hydroxypropanamide] to `NC(=O)C(CO)Cc1ccc(Nc2cc(-c3cccc(Cl)c3)nc3c2CCC3)cc1` (stereo not drawn) [Example 108, 2-(4-((2-(3-Chlorophenyl)-6,7-dihydro-5H-cyclopenta[b]pyridin-4-yl)amino)benzyl)-3-hydroxypropanamide hydrochloride], the IC50 falls from over 1000 nM to under 1000 nM. The second is the more potent here.

`OC(Cc1ccc(Nc2nc(-c3cccc(Cl)c3)nc3c2CCC3)cc1)C(F)(F)F` (stereo not drawn) [Example 176, 3-(4-((2-(3-Chlorophenyl)-6,7-dihydro-5H-cyclopenta[d]pyrimidin-4-yl)amino)phenyl)-1,1,1-trifluoropropan-2-ol] and `N#CCc1ccc(Nc2nc(-c3cccc(Cl)c3)nc3c2CCC3)cc1` [Example 19, 2-[4-[[2-(3-chlorophenyl)-6,7-dihydro-5H-cyclopenta[d]pyrimidin-4-yl]amino]phenyl]acetonitrile] cannot be ordered by IC50: over 1000 nM for the first, over 1000 nM for the second.

`OCCc1ccc(Nc2cc(-c3cc(F)cc(Cl)c3)nc3c2CCC3)cc1` [Example 153, 2-(4-((2-(3-Chloro-5-fluorophenyl)-6,7-dihydro-5H-cyclopenta[b]pyridin-4-yl)amino)phenyl)ethanol hydrochloride] and `CC(C)(C(=O)O)c1ccc(Cc2cc(-c3cccc(Cl)c3)nc3c2CCC3)cc1` [Example 126, 2-(4-((2-(3-Chlorophenyl)-6,7-dihydro-5H-cyclopenta[b]pyridin-4-yl)methyl)phenyl)-2-methylpropanoic acid hydrochloride] cannot be ordered by IC50: over 1000 nM for the first, over 1000 nM for the second.

Going from `CCc1c(C)nc(-c2ccc(Cl)s2)nc1Nc1ccc(Cn2cccn2)cc1` [Example 299, 2-(5-Chloro-2-thienyl)-5-ethyl-6-methyl-N-[4-(pyrazol-1-ylmethyl)phenyl]pyrimidin-4-amine] to `CCCNC(=O)Cc1ccc(Nc2nc(-c3ccc(Cl)s3)nc(C)c2CC)cc1` [Example 307, 2-[4-[[2-(5-Chloro-2-thienyl)-5-ethyl-6-methyl-pyrimidin-4-yl]amino]phenyl]-N-propyl-acetamide], the IC50 falls from over 1000 nM to under 1000 nM.
